tested on: helminths that were resistant to ivermectine, pyrantel, praziquantel and moxidectine; test: Treatment of Horse 4 severely infected with resistant parasites; assay type: in vivo; details: Horse 4 severely infected with parasites
Description: Horse 4 was treated with 38 g Asafoetida powder with Arabic gum mixed in milk and with cereal.

Molecule | result of several treatments
O=C(C1CCCCC1)N1CC(=O)N2CCc3ccccc3C2C1 (stereo not shown) [praziquantel] | had no result
CO/N=C1\C[C@]2(C[C@@H]3C[C@@H](C/C=C(\C)C[C@@H](C)/C=C/C=C4\CO[C@@H]5[C@H](O)C(C)=C[C@@H](C(=O)O3)[C@]45O)O2)O[C@H](/C(C)=C/C(C)C)[C@H]1C [moxidectine] | had no result
ivermectine | had no result
CN1CCCN=C1/C=C/c1cccs1 [pyrantel] | had no result
